This note sets out measurements from patent publication US10532040B2, “Methods of treating cancer with herbacetin” (REGENTS OF THE UNIVERSITY OF MINNESOTA, priority 2011, dated 2020).

Each structure is given as a SMILES string. Entries after “also recorded” stand apart in the source; their conditions may differ.

The subject of data set [1] is HCT116, DLD1, HT29 colon cancer cells. Nature of the data set: growth of colon cancer cells, MTS assay. The format is cell-based. Here is the method: FIGS. 3A-3H. Anticancer effect of herbacetin. (a) The effect of herbacetin on ODC activity in colon cancer cell lines was measured as the release of CO2 from L-[1-C^14] ornithine. […] (b) The effect of herbacetin and DFMO on the growth of colon cancer cells and (c) TPA-induced JB6 cell growth was compared. Cells were incubated for 72 h and growth was estimated using the MTS assay. (d) The effect of herbacetin on anchorage independent HCT116 colon cancer cell growth and (e) TPA-induced JB6 cell transformation was assessed. Cells were incubated for 2 weeks and then colonies were counted using a microscope and the Image-Pro PLUS (v.6) computer software program. The effect of herbacetin on AP-1 reporter activity in (f) HCT116 colon cancer cells and (g) TPA-induced AP-1 reporter activity in JB6 mouse epidermal cells was analyzed using the substrates included in the reporter assay system. Data are represented as means±S.D. of triplicate values from three independent experiments and the asterisk (*) indicates a significant (p<0.05) effect of herbacetin or DFMO compared to untreated or TPA-treated controls. (h) The effect of herbacetin on the phosphorylation of ERK1 and ERK2 in HCT116 colon cancer cells was determined by Western blotting. Similar results were observed from two independent experiments.
On the technique in general: Tetrazolium assays rely on reduction of a dye to a coloured formazan, in cell work by metabolically active cells.

The target of data set [2] is T1, ODC (Mus musculus, UniProt P00860).
T1 construct: endogenous in cells; host or cells: JB6 mouse skin epidermal cells, TPA-treated
T1 sequence (P00860 1-461): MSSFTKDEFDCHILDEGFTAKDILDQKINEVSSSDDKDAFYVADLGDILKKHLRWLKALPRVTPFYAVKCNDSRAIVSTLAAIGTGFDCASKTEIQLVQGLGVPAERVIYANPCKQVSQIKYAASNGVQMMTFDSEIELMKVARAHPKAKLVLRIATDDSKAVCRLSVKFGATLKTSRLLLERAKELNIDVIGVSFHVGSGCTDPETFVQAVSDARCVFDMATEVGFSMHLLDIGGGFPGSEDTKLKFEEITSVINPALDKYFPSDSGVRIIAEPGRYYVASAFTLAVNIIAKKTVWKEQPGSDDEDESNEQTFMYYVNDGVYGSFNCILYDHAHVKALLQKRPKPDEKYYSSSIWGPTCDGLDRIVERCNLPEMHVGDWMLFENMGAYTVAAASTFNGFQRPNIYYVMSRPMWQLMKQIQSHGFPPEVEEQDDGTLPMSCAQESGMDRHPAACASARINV
In words: ODC activity in TPA-treated JB6 mouse skin epidermal cells. The format is cell-based. Here is the method:
ODC activity was measured as the release of CO2 from L-[1-C^14] ornithine as previously described ([…]).

In data set [3] the test system is C57BL/6J-ApcMin+ mice. Nature of the data set: APCMin+ mouse colon cancer prevention pilot study, IP, 15 weeks. The format is in vivo. Here is the method: The anti-cancer effect of herbacetin in vivo has also been shown. Herbacetin prevents colon cancer development in […]57BL/6J-ApcMin+ were divided into […] and injected IP with vehicle or 1 of 2 amounts of herbacetin in vehicle. The doses included 0, 0.4, or 2 mg/kg B.W. herbacetin injected IP (n=15 total, 5 per group; Table 1). APC-min mice were 5 weeks old at the beginning of the study and received herbacetin for 15 weeks 5 days/week.

In data set [4] the test system is SKH-1 hairless mice, DMBA/TPA-induced skin tumors. In words: DMBA/TPA two-stage skin carcinogenesis mouse model, 20 weeks. The class given is in vivo. The source says:
Hairless SKH:HR-1-hrBr (SKH-1) mice were obtained from Charles River and were maintained under “specific pathogen-free” conditions following the guidelines established by the University of Minnesota Institutional Animal Care and Use Committee. Mice (8˜9 weeks old) were divided into five groups: 1) DMBA+vehicle group (n=20); 2) DMBA-initiated (200 nmol) and TPA-promoted group (17 nmol; n=20); 3) DMBA/TPA+100 nmol of herbacetin (n=20) group; 4) DMBA/TPA+500 nmol of herbacetin group (n=20); 5) DMBA+500 nmol of herbacetin group (n=20). One week after initiation, 17 nmol of TPA in acetone was topically applied twice weekly until the termination of the experiment at 20 weeks. When used, each dose of herbacetin was dissolved in 0.2 ml of 10% H2O in acetone and then topically applied to dorsal mouse skin at 30 min before TPA treatment. The number and volume of tumors per mouse was recorded weekly. The results are expressed as the percent of mice with tumors (incidence), average tumor volumes (size) and average number of tumors per mouse (multiplicity).

Data set [5] deals with T2, ODC (Homo sapiens, UniProt P11926).
T2 sequence (P11926 1-461): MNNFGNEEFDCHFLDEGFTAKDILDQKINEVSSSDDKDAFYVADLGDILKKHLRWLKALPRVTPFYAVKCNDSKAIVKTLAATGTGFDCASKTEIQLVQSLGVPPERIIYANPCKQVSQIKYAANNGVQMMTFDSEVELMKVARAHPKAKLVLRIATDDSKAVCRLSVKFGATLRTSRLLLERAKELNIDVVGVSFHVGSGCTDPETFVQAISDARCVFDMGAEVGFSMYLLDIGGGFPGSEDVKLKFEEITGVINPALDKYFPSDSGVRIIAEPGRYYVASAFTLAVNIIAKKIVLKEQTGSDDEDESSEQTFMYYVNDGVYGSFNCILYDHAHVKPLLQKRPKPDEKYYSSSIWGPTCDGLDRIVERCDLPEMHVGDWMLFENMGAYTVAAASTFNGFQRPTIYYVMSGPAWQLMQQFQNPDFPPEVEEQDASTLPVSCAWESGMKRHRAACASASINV
Nature of the data set: pull-down assay with herbacetin-conjugated Sepharose 4B beads (recombinant ODC or HCT116 lysate). The format is binding. Conditions: recombinant ODC protein or HCT116 cell lysate, Western blot. Here is the method:
A recombinant human ODC protein (200 ng) or total cell lysates (500 μg) to were incubated with herbacetin Sepharose 4B (or Sepharose 4B only as a control) beads (50 μl, 50% slurry) in reaction buffer (50 mM Tris pH 7.5, 5 mM EDTA, 150 mM NaCl, 1 mM DTT, 0.01% NP40, 2 μg/mL bovine serum albumin). After incubation with gentle rocking overnight at 4° C., the beads were washed 5 times with buffer (50 mM Tris pH 7.5, 5 mM EDTA, 150 mM NaCl, 1 mM DTT, 0.01% NP40) and binding was determined by Western blotting.

The mark [6] stands for this setting: 0.4 or 2 mg/kg BW IP, 15 weeks, 5 days/week.
The mark [7] stands for this setting: herbacetin 100 or 500 nmol topical before TPA, relative to TPA-treated group.

With `O=c1c(O)c(-c2ccc(O)cc2)oc2c(O)c(O)cc(O)c12` [herbacetin, 3,5,7,8,4′-Pentahydroxyflavone], the “inhibitory effect on growth of colon cancer cell lines” value in data set [1] (72 h, MTS, HCT116, DLD1, HT29) was “greatest inhibitory effect on colon cancer cells that expressed higher levels of ODC”. Moreover, the “proliferation and anchorage independent cell growth of several colon cancer cell lines” value in data set [1] (preliminary data) is “decrease proliferation and anchorage independent cell growth”. Further, the “suppression of ODC activity” value in data set [2] is given as “markedly more effective than DFMO; also recorded: inhibit TPA-induced ODC1 activity”. Also, in data set [3] (setting [6]), the colon tumor number result is recorded as “fewer” and the colon tumor size entry is reported as “smaller”. Also, in data set [3] (APCMin+ mice), the body weight result was “no effect”. Besides, the “tumors in herbacetin only (no TPA) group” value in data set [4] (DMBA + 500 nmol herbacetin, no TPA) is recorded as “No tumors were observed”. Besides, the “ODC activity in skin tumors” value in data set [4] (TPA-induced skin tumor tissue) is reported as “significantly inhibited ODC activity”. Besides, in data set [4] (setting [7]), the “number of skin tumors” value was “strongly suppressed” and the “volume of skin tumors” value is on record as “strongly suppressed”. Further, in data set [4] (immunoblot of TPA-induced skin tumors), the “ODC downstream proteins such as ERK and RSK in skin tumors” value was “strongly suppressed”. For the same molecule, the “binding to ODC” value in data set [5] is “directly binds to ODC; also recorded: bind to ornithine decarboxylase (ODC)”.
